Consider five compounds from patent US20210008075A1, “PEDIATRIC DOSING FOR TREATMENT OF CANCER WITH AN EZH2 INHIBITOR” (Epizyme, Inc., priority 2015, published 2021).

Entries after “also recorded” stand apart in the source; their conditions may differ. Like-named read-outs stand apart in the source and are kept apart here. A value given as a limit tells only on which side of the number the result lay.

Data set [1] has as its system ATRX mutant SCLC lines NCI-H446, SW1271 and NCI-H841. Put plainly: Response of ATRX mutant SCLC lines. The format is cell-based. The text has this:
FIGS. 8A-8C are three graphs establishing that ATRX mutant SCLC lines NCI-H446 (FIG. 8A), SW1271 (FIG. 8B) and NCI-H841 (FIG. 8C) are responding to Compound D.

Data set [2] deals with LNCAP prostate cancer cells. In words: LNCAP cell growth inhibition in vitro. Type of data set: cell-based.
For data set [3], the system named is G401 SNF mutant cell line. In words: Soft agar growth, 7 days. Type of data set: cell-based. To be noted: after 7 days. The text has this: FIGS. 3A-3D are a series of bar graphs showing that G401 SNF mutant cell line is responding to Compound D after 7 days in soft agar compared to wild type cells RD.
Data set [4] concerns SNF5 mutant cell lines A204, G401 and G402. Put plainly: Response of SNF5 mutant versus wild type cell lines. The format is cell-based.
Another data set deals with SCLC line NCI-H841. Put plainly: Morphology of SCLC line by microscopy. The format is cell-based. To be noted: 4.1E-02 uM or 3.3 uM.
Another data set concerns UPN737 ATRT cell line. In words: Surviving fraction after 2Gy radiation. Type of data set: cell-based. The text has this:
FIG. 25B is a pair of graphs showing a surviving fraction of untreated or DZNEP-treated ATRT cells (from a UPN737 ATRT cell line, “737”) exposed to 2Gy radiation.

The subject of the next data set is BT-16 ATRT cell line. In words: Surviving fraction after 2Gy radiation. The format is cell-based. The text has this:
FIG. 25A is a pair of graphs showing a surviving fraction of untreated or DZNEP-treated ATRT cells (from a BT-16 ATRT cell line) exposed to 2Gy radiation.

Data set [5] relates to atypical teratoid rhabdoid tumors (ATRTs). Put plainly: ATRT cell self-renewal. The settings on record: up to 7 or 10 days post-treatment. The format is cell-based. An excerpt:
FIG. 24A is a series of photographs showing control or EZH2 inhibitor-treated (DNZep-treated) atypical teratoid rhabdoid tumors (ATRTs) at 1, 3, 5, and 7 days post-treatment.
FIG. 24D is a series of photographs showing control or EZH2 inhibitor-treated (DNZep-treated) atypical teratoid rhabdoid tumors (ATRTs) at 3, 5, 8 and 10 days post-treatment.

The subject of another data set is Medulloblastoma cells. In words: Medulloblastoma cell growth, total cells per milliliter counted. To be noted: versus DMSO control, counted each day for 10 days; tazemetostat 0.5, 2 and 6 μM. The format is cell-based. The text has this:
The total cells per milliliter of culture were counted each day for 10 days.

A further data set concerns cellular H3K27Me3. In words: Cellular histone methylation in G401 and RD cells. The format is cell-based. As to the method: FIGS. 10A-10C are a series of graphs showing effects of Compound A on cellular global histone methylation and cell viability.
(FIG. 12A) Cell lysates were analyzed by immunoblot with antibodies specific to SMARCB1, EZH2 and Actin (loading control). […] Cells were incubated with Compound A for 4 days, and acid-extracted histones were analyzed by immunoblot.

The next data set has as its system SMARCB1 regulated genes. Put plainly: Gene expression by qPCR and cell morphology. Type of data set: cell-based. To be noted: 1 μM; 2, 4 and 7 days (G401, RD); 14 days (G402). As to the method: (FIG. 14A) Basal expression of SMARCB1 regulated genes in G401 SMARCB1-deleted cells, relative to RD control cells (measured by qPCR, n=2). (FIGS. 14B-14L) G401 and RD cells were incubated with either DMSO or 1 μM Compound A for 2, 4 and 7 days. Gene expression was determined by qPCR (n=2) and is expressed relative to the DMSO control of each time point. FIGS. 14B-14K correspond to genes GLI1, PTCh1, DOCK4, CD133, PTPRK, BIN1, CDKN1A, CDKN2A, EZH2, and MYC, respectively. (FIG. 14L) G402 cells were incubated with either DMSO (left panel) or 1 μM Compound A (right panel) for 14 days. Cells were split and re-plated to the original seeding density on day 7.
Background: Quantitative PCR measures a nucleic acid by following its amplification.

In data set [6] the test system is G401 SNF5 mutant cell line. Put plainly: CellTiter-Glo Luminescent Cell Viability Assay after 7 day pretreatment. The settings on record: pretreated for 7 days, replated on day 0. The format is cell-based. The protocol:
FIGS. 4A-4D are four graphs showing that G401 SNF5 mutant cell line is sensitive to Compound A in vitro. Wild type cell line SJCRH30 (FIG. 4A) and RD (FIG. 4C) and SNF5 mutant cell line G401 (FIG. 4B) and A204 (FIG. 4D) were pretreated for 7 days with indicated concentrations of Compound A and replated on day 0. Cell viability was determined by CellTiter-Glo® Luminescent Cell Viability Assay.
For orientation: Cellular ATP, detected with luciferase, serves as a proxy for viable cell number.

The test system of data set [7] is primary medulloblastoma cells. The settings on record: for primary medulloblastoma cell growth ex vivo: slice culture treated for 4 days. As to the method:
A slice culture of medulloblastoma was freshly isolated from a subject.
A patient having medulloblastoma underwent surgery to remove a slice of tumor tissue for testing. The medulloblastoma slice was cultured ex vivo on tissue supporting inserts (FIG. 28A). […] Following the treatment period, the cells of the slice culture were treated with BrdU for 4 hours prior to disaggregation and sorting by flow cytometry.

Data set [8] in a line: Oral bioavailability (general statement). The settings on record: in vivo.
The subject of data set [9] is SMARCB1-deleted MRT cells (G401). Put plainly: Cell cycle analysis (flow cytometry) and apoptosis (TUNEL assay). Type of data set: cell-based. The settings on record: 1 μM, up to 14 days. As to the method: Cell cycle analysis (by flow cytometry) and determination of apoptosis (by TUNEL assay) in RD (FIG. 13A) or G401 cells (FIG. 13B) during incubation with either vehicle or 1 μM Compound A for up to 14 days. […] Data are represented as mean values±SEM (n=2). The DMSO control values shown are the average±SEM from each time point. Cells were split and re-plated on days 4, 7 and 11 at the original seeding density.
(In general: A flow cytometer gives signals particle by particle.)

A short description of data set [10]: PBPK model (Gastroplus) prediction of adult steady-state PK. To be noted: adults, 100-1600 mg BID.
In data set [11] the test system is G401 xenografts (malignant rhabdoid tumor model). In words: G401 xenograft tumor regression. Type of data set: in vivo, SCID mice. The settings on record: twice daily (BID) administration at the indicated doses; listed as Compound A. The protocol: Data represent the mean values±SEM (n=8). Compound administration was stopped on day 28. (FIG. 5C) EZH2 target inhibition in G401 xenograft tumor tissue collected from a parallel cohort of mice on day 21. […] Horizontal lines represent group mean values. BLLQ=below lower limit of quantification. (FIG. 5D, FIG. 5E) Immunohistochemical staining of tumor histone methylation of tumor samples from the vehicle treated (FIG. 5D) and Compound A treated (FIG. 5E) (at 125 mg/kg) mice.
Data are presented as mean values±SEM (n=16 until day 21, n=8 from day 22 to 60). […] (FIG. 15C) Tumor weights of 8 mice euthanized on day 21. ****p<0.0001, Fisher's exact test. (FIG. 15D) Plasma was collected 5 min before and 3 h after dosing of Compound A on day 21, and compound levels were measured by LC-MS/MS. Animals were euthanized, and tumors were collected 3 h after dosing on day 21. Tumor homogenates were generated and subjected to LC-MS/MS analysis to determine Compound A concentrations. Note that tumor compound levels could not be determined from all animals especially in the higher dose groups because the xenografts were too small on day 21. Dots represent values for the individual animals; horizontal lines represent group mean values.
Compound administration was stopped on day 28 and tumors were allowed to re-grow until they reached 2000 mm^3 (data shown as mean values±SEM, n=8). […]

In a further data set the test system is ATRT. In words: ATRT in vivo, percent survival.
Data set [12] can be described thus: Phase 1 clinical trial, observed steady-state PK in adults. To be noted: for CL/F Observed: adults, steady-state; for AUC(0-t) / Cmax: human, in vivo, po.
The mark [13] stands for this setting: 500 nM or 2 μM for 4 days, versus untreated control.

As to `CCN(c1cc(-c2ccc(CN3CCOCC3)cc2)cc(C(=O)NCc2c(C)cc(C)[nH]c2=O)c1C)[C@H]1CC[C@H](N(C)C)CC1` [Compound D], the “response of ATRX mutant SCLC lines” value in [1] is “responding”. The cell growth inhibition result in data set [2] is listed as “dose-dependent cell growth inhibition”. For the same compound, the “response in soft agar compared to wild type cells RD” value in data set [3] is listed as “responding”. The “response of SNF5 mutant cell lines compared to wild type cell lines RD and SJCRH30” value in data set [4] is recorded as “selectively respond”. For the same compound, in the data set with SCLC line NCI-H841, the cell morphology result was “changes morphology”.
Take `Nc1nccc2c1ncn2C1C=C(CO)C(O)C1O` (centres unmarked) [DNZep]: the “radio-sensitization (surviving fraction)” value with UPN737 ATRT cell line and with BT-16 ATRT cell line was “radio-sensitizes ATRT” throughout. In addition, in data set [5], the ATRT cell self-renewal result is given as “suppresses ATRT cell self-renewal”.
Turning to `CC[C@H](C)n1cc(C)c2c(C(=O)NCc3c(C)cc(C)[nH]c3=O)cc(-c3ccc(N4CCNCC4)nc3)cc21` [GSK-126, reference compound], the “medulloblastoma cell growth (total cells per milliliter)” value in the data set with Medulloblastoma cells was “decrease medulloblastoma cell growth”.
Same read-out and setting: then `CCCc1cc(C)[nH]c(=O)c1CNC(=O)c1cc(-c2ccc(N3CCN(C(C)C)CC3)nc2)cc2c1cnn2C(C)C` [UNC 1999, reference compound], with “decrease medulloblastoma cell growth”.
With `CCN(c1cc(-c2ccc(CN3CCOCC3)cc2)cc(C(=O)NCc2c(C)cc(C)[nH]c2=O)c1C)C1CCOCC1` [tazemetostat], the “cellular H3K27Me3 levels” value with cellular H3K27Me3 is “Concentration-dependent inhibition”. Also, the “specificity for inhibition of cellular histone methylation” value in the data set on cellular H3K27Me3 (4 days, immunoblot) is listed as “Selective inhibition of cellular H3K27 methylation”. Moreover, in the data set with SMARCB1 regulated genes, the “expression of SMARCB1 regulated genes and cell morphology” value is “induces changes in expression of SMARCB1 regulated genes and cell morphology”. Further, the “sensitivity of cell viability in vitro” value in data set [6] is “sensitive”. For the same compound, in [7] (setting [13]), the “proportion of cells in G0/G1 stage” value was “increased proportion”. In addition, the “proportion of cells in G2/M stage” value in data set [7] (setting [13]) is given as “decreased proportion”. In addition, the entries for the “primary medulloblastoma cell growth ex vivo” value in [7] and in data set [7] (listed as Tazemetostat) were “inhibits proliferation/growth of medulloblastoma cells” and “decreases primary medulloblastoma cell growth ex vivo”, respectively. For the same compound, the oral bioavailability result in [8] was “orally bioavailable”. Moreover, the G1 arrest result in data set [9] is “G1 arrest was observed as of day 7”. The apoptosis result in data set [9] (TUNEL) was “apoptosis was induced as of day 11”. For the same compound, in data set [10], the “deviation of predicted mean steady-state AUC0-t from observed” value was ≤ 30%. In data set [10], the “deviation of predicted oral clearance (CL/F) from observed” value was ≤ 30%. Further, the “medulloblastoma cell growth (total cells per milliliter)” value in the data set with Medulloblastoma cells was “significant decrease; also recorded: decrease medulloblastoma cell growth”. Also, the “tumor response in G401 xenografts” value in data set [11] was “durable regressions; also recorded: Tumor regressions; also recorded: eradicates SMARCB1-deleted MRT xenografts”. Further, the “ATRT in vivo (percent survival versus vehicle)” value in the data set on ATRT was “decreases ATRT in vivo”. Besides, the “CL/F Observed” value amounted to 309 L/h in data set [12] (100 mg BID p.o. (n = 6)); 198 L/h in data set [12] (200 mg BID p.o. (n = 3)); 264 L/h in data set [12] (400 mg BID p.o. (n = 3)); 152 L/h in data set [12] (800 mg BID p.o. (n = 6)); 180 L/h in [12] (1600 mg BID p.o. (n = 6)). The AUC(0-t) in data set [12] (100 mg) was determined as 348 ng·h/mL; in data set [12] (200 mg), 1010 ng·h/mL; in [12] (400 mg), 1510 ng·h/mL; in data set [12] (800 mg), 4630 ng·h/mL; in data set [12] (1600 mg), 7880 ng·h/mL. For the same compound, the peak concentration (Cmax) in data set [12] (100 mg) turned out to be 99 ng/mL; in data set [12] (200 mg), 237 ng/mL; in data set [12] (400 mg), 313 ng/mL; in data set [12] (800 mg) it was 818 ng/mL; in data set [12] (1600 mg), 1480 ng/mL.

The term AUC(0-t) denotes the area under the concentration-time curve up to a stated or last time point. High values mean high exposure, low ones low exposure. For orientation: Cmax means the peak of the concentration-time curve.
